For 36 compounds, EC50 results are on record in BindingDB's records for doi:10.7270/Q25719FH (Srmlsc, 2007).

pEC50: −log10 of the molar value.

In this assay the target is Multidrug resistance-associated protein 1 (Homo sapiens, UniProt P33527). As to the kind of experiment: doxorubicin EC50 increase in MRP-1 cells, dose response, cell-based, doxorubicin EC50 shift (AID 844).
Chain of Multidrug resistance-associated protein 1 (P33527 whole entry): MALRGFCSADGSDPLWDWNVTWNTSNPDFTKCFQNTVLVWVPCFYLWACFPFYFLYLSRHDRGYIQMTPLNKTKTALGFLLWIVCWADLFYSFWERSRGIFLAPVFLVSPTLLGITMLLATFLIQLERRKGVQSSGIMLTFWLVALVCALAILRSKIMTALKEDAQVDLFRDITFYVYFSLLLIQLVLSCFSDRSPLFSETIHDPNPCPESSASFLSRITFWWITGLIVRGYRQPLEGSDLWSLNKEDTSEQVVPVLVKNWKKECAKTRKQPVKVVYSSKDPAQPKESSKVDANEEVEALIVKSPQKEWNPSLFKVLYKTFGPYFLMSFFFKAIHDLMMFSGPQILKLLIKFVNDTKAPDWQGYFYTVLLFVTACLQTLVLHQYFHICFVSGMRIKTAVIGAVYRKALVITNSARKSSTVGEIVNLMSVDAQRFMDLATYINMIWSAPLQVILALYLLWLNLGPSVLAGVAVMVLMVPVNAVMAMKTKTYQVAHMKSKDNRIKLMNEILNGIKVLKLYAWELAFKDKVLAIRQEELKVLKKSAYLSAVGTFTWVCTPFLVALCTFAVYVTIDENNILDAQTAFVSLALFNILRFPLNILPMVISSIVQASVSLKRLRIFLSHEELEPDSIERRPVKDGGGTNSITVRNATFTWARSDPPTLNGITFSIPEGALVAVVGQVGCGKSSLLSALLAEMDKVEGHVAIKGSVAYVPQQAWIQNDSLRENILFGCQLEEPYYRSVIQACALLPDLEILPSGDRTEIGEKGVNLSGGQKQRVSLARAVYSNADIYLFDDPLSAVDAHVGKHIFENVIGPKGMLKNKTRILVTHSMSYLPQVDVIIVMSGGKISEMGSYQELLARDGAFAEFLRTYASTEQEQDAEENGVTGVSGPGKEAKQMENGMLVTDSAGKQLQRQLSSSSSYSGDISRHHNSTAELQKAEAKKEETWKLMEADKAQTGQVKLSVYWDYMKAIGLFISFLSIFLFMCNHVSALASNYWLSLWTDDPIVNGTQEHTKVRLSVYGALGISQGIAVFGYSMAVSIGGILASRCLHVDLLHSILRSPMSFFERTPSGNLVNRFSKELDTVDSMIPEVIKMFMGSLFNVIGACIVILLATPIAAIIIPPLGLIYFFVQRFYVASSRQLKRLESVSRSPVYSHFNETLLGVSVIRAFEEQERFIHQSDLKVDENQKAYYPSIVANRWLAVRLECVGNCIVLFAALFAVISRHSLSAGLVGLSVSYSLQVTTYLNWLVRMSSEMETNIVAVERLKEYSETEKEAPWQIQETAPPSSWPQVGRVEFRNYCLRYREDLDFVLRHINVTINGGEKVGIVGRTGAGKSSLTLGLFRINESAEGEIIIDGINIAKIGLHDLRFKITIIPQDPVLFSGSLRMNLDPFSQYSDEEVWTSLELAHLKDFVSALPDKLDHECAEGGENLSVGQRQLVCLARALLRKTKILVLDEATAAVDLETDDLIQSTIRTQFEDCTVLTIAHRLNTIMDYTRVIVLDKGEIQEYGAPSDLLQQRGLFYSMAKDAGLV

As usually defined, the pEC50 is the EC50 on a negative log10 scale, so that one unit is a factor of ten. Turning to `COC(=O)C1=C(C)N=C(C)C(C(=O)OC)C1c1ccccc1OCc1c(C)n[o+]n1[O-]` (stereo unspecified), the pEC50 is 5.27.

Regarding `O=c1[nH]c2ccccc2n1C1CCN(c2cc(O)n(-c3ccc(F)cc3)c2O)CC1`, the pEC50 is 5.12.

In the case of `CCOC(=O)C1C(C)=Nc2ncnn2C1c1cccnc1` (stereo unspecified), the negative-log EC50 (pEC50) is 5.35.

With `COc1ccc(-n2c(O)cc(N3CCC(n4c(=O)[nH]c5ccccc54)CC3)c2O)cc1`, the negative-log EC50 (pEC50) is 5.25.

For `Cc1ccc(-n2[nH]c(C)c(C(c3ccccc3O)c3c(C)[nH]n(-c4ccc(C)cc4C)c3=O)c2=O)c(C)c1`, the pEC50 was 5.42.

Consider `COc1ccc(Cc2nnc(N=NCc3ccc(O)cc3O)[nH]c2=O)cc1OC`, for which the pEC50 is 6.08.

As to `O=S(=O)(c1ccc(Cl)cc1Br)N1CCCCC1` [1-(2-bromanyl-4-chloranyl-phenyl)sulfonylpiperidine], the pEC50 is 5.27.

As to `Oc1cc(N2CCCN(c3cc(O)n(-c4ccc(F)cc4)c3O)CC2)c(O)n1-c1ccc(F)cc1` [1-(4-fluorophenyl)-3-[4-[1-(4-fluorophenyl)-2,5-bis(oxidanylidene)pyrrolidin-3-yl]-1,4-diazepan-1-yl]pyrrolidine-2,5-dione], the pEC50 is 5.20.

In the case of `COc1ccc(-n2c(O)cc(N3CCC(O)(c4cccc(C(F)(F)F)c4)CC3)c2O)cc1` [1-(4-methoxyphenyl)-3-[4-oxidanyl-4-[3-(trifluoromethyl)phenyl]piperidin-1-yl]pyrrolidine-2,5-dione], the pEC50 is 5.32.

On to `CC1CCN(S(=O)(=O)c2ccc(Br)s2)CC1` [1-(5-bromanylthiophen-2-yl)sulfonyl-4-methyl-piperidine], for which the negative-log EC50 (pEC50) is 5.45.

For the compound `C=CCN(C(=O)Nc1ccc(Cl)cc1)c1cc(O)n(-c2ccc(OC)cc2)c1O` [1-allyl-3-(4-chlorophenyl)-1-[2,5-diketo-1-(4-methoxyphenyl)pyrrolidin-3-yl]urea], the negative logarithm of the EC50 (pEC50) was 5.31.

`COC1(OC)C(O)CCC(N=O)C1N=O` (stereo unspecified) [2,2-dimethoxy-3-nitroso-4-(oxidanylamino)cyclohex-3-en-1-ol]: the pEC50 is 5.38.

Turning to `N#CC1C(=N)SC(=N)C(C#N)C1c1cccc(O)c1` (stereo unspecified) [2,6-Diamino-4-(3-hydroxy-phenyl)-4H-thiopyran-3,5-dicarbonitrile], the pEC50 is 5.24.

For the compound `O=C1CCCC(=O)C1=NNc1ccc2c(c1)OCO2` [2-(1,3-benzodioxol-5-ylhydrazinylidene)cyclohexane-1,3-dione], the pEC50 is 5.20.

`Cc1cccc(NC(=O)Cc2sc(=O)n(-c3ccccc3)c2O)c1` [2-(2,4-Dioxo-3-phenyl-thiazolidin-5-yl)-N-m-tolyl-acetamide]: the pEC50 is 5.29.

As to `Cc1ccccc1NC(=O)Cc1sc(=O)n(-c2ccccc2)c1O` [2-(2,4-Dioxo-3-phenyl-thiazolidin-5-yl)-N-o-tolyl-acetamide], the negative-log EC50 (pEC50) is 5.14.

Consider `O=C(Cc1sc(=O)n(-c2ccccc2)c1O)Nc1ccccc1` [2-(2,4-diketo-3-phenyl-thiazolidin-5-yl)-N-phenyl-acetamide], for which the pEC50 was 5.19.

For `COc1ccc(N2C(=S)C(C#N)C(=O)NC2c2ccco2)cc1` (stereo unspecified) [2-(2-furanyl)-4-mercapto-3-(4-methoxyphenyl)-6-oxo-1,2-dihydropyrimidine-5-carbonitrile], the pEC50 is 5.66.

`Oc1nc(Nc2ccc(Cl)cc2)sc1Cc1cccc(Cl)c1Cl` [2-(4-chloroanilino)-5-(2,3-dichlorobenzyl)-2-thiazolin-4-one]: the pEC50 is 5.19.

Take `Oc1nc(Nc2ccc(Cl)cc2)sc1Cc1cc(Cl)ccc1Cl` [2-(4-chloroanilino)-5-(2,5-dichlorobenzyl)-2-thiazolin-4-one]: the negative logarithm of the EC50 (pEC50) was 5.23.

As for `Cc1cc(N=NCc2ccccc2Cl)nc(NCc2ccccc2)n1` [2-N-benzyl-4-N-[(2-chlorophenyl)methylideneamino]-6-methylpyrimidine-2,4-diamine], the pEC50 was 5.97.

For `COc1ccc(-n2c(O)c(CC(=O)Nc3ccc(F)cc3)n(CCc3cccs3)c2=O)cc1` [2-[2,5-diketo-1-(4-methoxyphenyl)-3-[2-(2-thienyl)ethyl]imidazolidin-4-yl]-N-(4-fluorophenyl)acetamide], the negative logarithm of the EC50 (pEC50) is 5.36.

Take `N#CC(C#N)N=Nc1ccc(S(=O)(=O)N2CCCC2)cc1` [2-[(4-pyrrolidin-1-ylsulfonylphenyl)hydrazinylidene]propanedinitrile]: the pEC50 is 5.23.

For `O=C1C=CC([N+](=O)[O-])=CC1/C=N/n1cnc2ccccc21` (stereo unspecified) [2-[(E)-Benzoimidazol-1-yliminomethyl]-4-nitro-phenol], the negative logarithm of the EC50 (pEC50) was 5.44.

For the compound `Oc1nc(Nc2ccccc2)sc1Cc1cccc(Cl)c1Cl` [2-anilino-5-(2,3-dichlorobenzyl)-2-thiazolin-4-one], the negative-log EC50 (pEC50) was 5.18.

Consider `O=[N+]([O-])c1ccc(N=NCc2ccccc2)c(F)c1` [2-fluoranyl-4-nitro-N-[(phenylmethylidene)amino]aniline], for which the negative logarithm of the EC50 (pEC50) was 5.46.

As to `C=C(C)C(=O)Nc1cc(=O)n(-c2ccccc2)[nH]1` [2-methyl-N-(5-oxo-1-phenyl-4H-pyrazol-3-yl)prop-2-enamide], the pEC50 was 5.25.

As to `COc1ccccc1C1C(C(=O)c2sc(C)nc2C)C(=O)C(=O)N1CCN1CCOCC1` (stereo unspecified) [3-(2,4-dimethyl-1,3-thiazole-5-carbonyl)-4-hydroxy-2-(2-methoxyphenyl)-1-(2-morpholin-4-ylethyl)-2H-pyrrol-5-one], the pEC50 was 5.42.

For `CCOC(=O)C1C(C)=Nc2sc(C(=O)c3ccc(OC)cc3)c(N)c2C1c1ccc(C(=O)OC)cc1` (stereo unspecified) [3-Amino-2-(4-methoxy-benzoyl)-4-(4-methoxycarbonyl-phenyl)-6-methyl-4,7-dihydro-thieno[2,3-b]pyridine-5-carboxylic acid ethyl ester], the negative-log EC50 (pEC50) was 5.96.

For the compound `CCOC(=O)C1C(C)=Nc2sc(C(=O)c3ccc(C)cc3)c(N)c2C1c1ccc(C(=O)OC)cc1` (stereo unspecified) [3-Amino-4-(4-methoxycarbonyl-phenyl)-6-methyl-2-(4-methyl-benzoyl)-4,7-dihydro-thieno[2,3-b]pyridine-5-carboxylic acid ethyl ester], the negative-log EC50 (pEC50) was 5.71.

In the case of `Oc1cc(N2CCN(c3nc4ccccc4s3)CC2)c(O)n1-c1ccc(F)cc1` [3-[4-(1,3-benzothiazol-2-yl)-1-piperazinyl]-1-(4-fluorophenyl)pyrrolidine-2,5-dione], the pEC50 was 5.19.

As for `Oc1cc(N2CCC(c3nc4ccccc4o3)CC2)c(O)n1-c1cc(Cl)cc(Cl)c1` [3-[4-(1,3-benzoxazol-2-yl)-1-piperidinyl]-1-(3,5-dichlorophenyl)-2,5-pyrrolidinedione], the pEC50 was 5.13.

In the case of `Oc1cc(N2CCC(O)(c3ccc(Br)cc3)CC2)c(O)n1-c1ccc(Cl)cc1` [3-[4-(4-bromophenyl)-4-hydroxy-1-piperidinyl]-1-(4-chlorophenyl)-2,5-pyrrolidinedione], the pEC50 is 5.13.

On to `O=C(O)c1cccc(-n2c(O)c3c(c2O)CC(Cl)=CC3)c1` [3-[5-chloranyl-1,3-bis(oxidanylidene)-3a,4,7,7a-tetrahydroisoindol-2-yl]benzoic acid], for which the negative-log EC50 (pEC50) was 5.10.

With `COc1cccc(C=Nn2c(O)csc2=S)c1O` [3-[[(E)-(5-methoxy-6-oxidanylidene-cyclohexa-2,4-dien-1-ylidene)methyl]amino]-2-sulfanylidene-1,3-thiazolidin-4-one], the pEC50 is 5.15.

Regarding `CCSC(C)CC1Cc2onc(CC)c2C(N=O)C1` (stereo unspecified) [3-ethyl-6-[2-(ethylthio)propyl]-6,7-dihydro-5H-1,2-benzoxazol-4-one oxime], the negative-log EC50 (pEC50) was 5.16.
